7 compounds from ChEMBL document CHEMBL3045319, “Synthesis, antitumor activity, and structureactivity relationship of some 4H-pyrano[3,2-h]quinoline and 7H-pyrimido[4,5:6,5]pyrano[3,2-h]quinoline derivatives” (Med Chem Res, 2013) can be followed below.

≈ marks a conversion by molar mass, not a printed value.

Assay [1] deals with HepG2. Briefly: Cytotoxicity against Homo sapiens (human) HepG2 cells after 48 hr by MTT assay. In kind it is functional, cell-based. Conditions: Homo sapiens, HepG2, 48 h; read-out: IC50. On the technique in general: Tetrazolium assays rely on reduction of a dye to a coloured formazan, in cell work by metabolically active cells.
Assay [2] deals with HepG2. Briefly: Cytotoxicity against Homo sapiens (human) HepG2 cells assessed as cell viability at 1.56 ug/ml after 48 hr by MTT assay relative to control. In kind it is functional. Conditions: HepG2, 48 h, read-out: Activity.
The test system of assay [3] is HepG2. Kind of assay: Cytotoxicity against Homo sapiens (human) HepG2 cells assessed as cell viability at 3.125 ug/ml after 48 hr by MTT assay relative to control. It is filed as functional. The note with it: HepG2, 48 h, read-out: Activity.
For assay [4], the system named is HepG2. Briefly: Cytotoxicity against Homo sapiens (human) HepG2 cells assessed as cell viability at 6.25 ug/ml after 48 hr by MTT assay relative to control. Conditions: HepG2, 48 h, read-out: Activity. It is filed as functional.
Assay [5] concerns HepG2. Briefly: Cytotoxicity against Homo sapiens (human) HepG2 cells assessed as cell viability at 12.5 ug/ml after 48 hr by MTT assay relative to control. It is filed as functional. Conditions: HepG2, 48 h, read-out: Activity.
The subject of assay [6] is HepG2. Kind of assay: Cytotoxicity against Homo sapiens (human) HepG2 cells assessed as cell viability at 25 ug/ml after 48 hr by MTT assay relative to control. In kind it is functional. The note with it: HepG2, 48 h, read-out: Activity.
Assay [7] deals with HepG2. Kind of assay: Cytotoxicity against Homo sapiens (human) HepG2 cells assessed as cell viability at 50 ug/ml after 48 hr by MTT assay relative to control. In kind it is functional. Conditions: HepG2, 48 h, read-out: Activity.
A short description of assay [8]: Cytotoxicity against Homo sapiens (human) HCT cells after 48 hr by MTT assay. In kind it is functional, cell-based.
Assay [9] can be described thus: Cytotoxicity against Homo sapiens (human) HCT cells assessed as cell viability at 1.56 ug/ml after 48 hr by MTT assay relative to control. In kind it is functional. Conditions: read-out: Activity.
The nature of assay [10]: Cytotoxicity against Homo sapiens (human) HCT cells assessed as cell viability at 6.25 ug/ml after 48 hr by MTT assay relative to control. In kind it is functional. The note with it: read-out: Activity.
Assay [11] relates to MCF7. Briefly: Cytotoxicity against Homo sapiens (human) MCF7 cells assessed as cell viability at 1.56 ug/ml after 48 hr by MTT assay relative to control. In kind it is functional. The note with it: MCF7, 48 h, read-out: Activity.
The test system of assay [12] is MCF7. Kind of assay: Cytotoxicity against Homo sapiens (human) MCF7 cells assessed as cell viability at 3.125 ug/ml after 48 hr by MTT assay relative to control. It is filed as functional. Conditions: MCF7, 48 h, read-out: Activity.
Assay [13] relates to MCF7. Briefly: Cytotoxicity against Homo sapiens (human) MCF7 cells assessed as cell viability at 12.5 ug/ml after 48 hr by MTT assay relative to control. Conditions: MCF7, 48 h, read-out: Activity. It is filed as functional.
Assay [14] concerns MCF7. Kind of assay: Cytotoxicity against Homo sapiens (human) MCF7 cells assessed as cell viability at 6.25 ug/ml after 48 hr by MTT assay relative to control. In kind it is functional. The note with it: MCF7, 48 h, read-out: Activity.
The test system of assay [15] is MCF7. Briefly: Cytotoxicity against Homo sapiens (human) MCF7 cells assessed as cell viability at 50 ug/ml after 48 hr by MTT assay relative to control. In kind it is functional. The note with it: MCF7, 48 h, read-out: Activity.
Assay [16] concerns MCF7. Briefly: Cytotoxicity against Homo sapiens (human) MCF7 cells assessed as cell viability at 25 ug/ml after 48 hr by MTT assay relative to control. In kind it is functional. The note with it: MCF7, 48 h, read-out: Activity.
Assay [17] is described as follows: Cytotoxicity against Homo sapiens (human) HCT cells assessed as cell viability at 3.125 ug/ml after 48 hr by MTT assay relative to control. In kind it is functional. The note with it: read-out: Activity.
A short description of assay [18]: Cytotoxicity against Homo sapiens (human) HCT cells assessed as cell viability at 12.5 ug/ml after 48 hr by MTT assay relative to control. It is filed as functional. Conditions: read-out: Activity.
Assay [19] is described as follows: Cytotoxicity against Homo sapiens (human) HCT cells assessed as cell viability at 25 ug/ml after 48 hr by MTT assay relative to control. It is filed as functional. The note with it: read-out: Activity.
The nature of assay [20]: Cytotoxicity against Homo sapiens (human) HCT cells assessed as cell viability at 50 ug/ml after 48 hr by MTT assay relative to control. In kind it is functional. Conditions: read-out: Activity.
Assay [21] deals with MCF7. Kind of assay: Cytotoxicity against Homo sapiens (human) MCF7 cells after 48 hr by MTT assay. In kind it is functional, cell-based. The note with it: MCF7, 48 h.

The IC50 is the concentration at which inhibition is half-maximal. Take `N#CC1=C(/N=C/NN)Oc2c(ccc3cccnc23)C1c1ccc(Cl)cc1` (stereo not given): the IC50 in assay [1] is 8.7 µg/mL (≈ 23.1 µM); in assay [8], 7.4 µg/mL (≈ 19.7 µM); in assay [21] it was 8.4 µg/mL (≈ 22.4 µM). For the same compound, the viability at 1.56 µg/mL in assay [2] turned out to be 88.2%; in [9], 81.4%; in assay [11], 78.8%. For the same compound, the viability at 3.125 µg/mL in assay [3] turned out to be 78.4%; in assay [12], 67%; in assay [17] it was 65.2%. The viability at 6.25 µg/mL in [4] was found to be 60.9%; in [10] it was 55.6%; in [14], 55%. Also, the viability at 12.5 µg/mL came to 36% in assay [5], 45% in assay [13] and 36% in assay [18]. The viability at 25 µg/mL was found to be 29.1% in assay [6], 35.2% in assay [16] and 29.2% in [19]. For the same compound, the viability at 50 µg/mL was 24.9% in [7], 21.4% in [15] and 24.8% in assay [20].

Take `CN/C=N/C1=C(C#N)C(c2ccc(Cl)cc2)c2ccc3cccnc3c2O1` (stereo not given): the IC50 in assay [1] turned out to be 1.9 µg/mL (≈ 5.07 µM); in assay [8] it was 2.3 µg/mL (≈ 6.14 µM); in assay [21], 6.3 µg/mL (≈ 16.8 µM). The values for the viability at 1.56 µg/mL in [2], in assay [9] and in assay [11] were 52.8%, 58.2% and 76.8%, respectively. The viability at 3.125 µg/mL in assay [3] came out at 45.7%; in assay [12], 65%; in assay [17], 41.4%. Moreover, the viability at 6.25 µg/mL in [4] was found to be 39%; in assay [10] it was 29.4%; in [14], 50.1%. Also, the viability at 12.5 µg/mL in assay [5] was determined as 30.4%; in assay [13], 29.2%; in assay [18], 22.2%. Also, the results for the viability at 25 µg/mL in assay [6], in assay [16] and in [19] were 17.9%, 21.4% and 13.6%, respectively. The viability at 50 µg/mL in assay [7] stood at 9.28%; in assay [15], 16.8%; in assay [20] it was 11.1%.

For the compound `N#CC1=C(/N=C/N)Oc2c(ccc3cccnc23)C1c1ccc(Cl)cc1` (stereo not given), the IC50 came out at 23.6 µg/mL (≈ 65.4 µM) in [1], 6.8 µg/mL (≈ 18.8 µM) in assay [8] and 10.5 µg/mL (≈ 29.1 µM) in assay [21]. Also, the viability at 1.56 µg/mL in [2] was 96.6%; in assay [9] it was 94.9%; in assay [11], 91.3%. For the same compound, the viability at 3.125 µg/mL in assay [3] is 87.4%; in assay [12], 79.7%; in assay [17], 80.2%. Further, the viability at 6.25 µg/mL in [4] is 76.7%; in assay [10], 52.4%; in [14], 67.4%. For the same compound, the values for the viability at 12.5 µg/mL in assay [5], in assay [13] and in assay [18] were 63.9%, 43.6% and 26.3%, respectively. The viability at 25 µg/mL in assay [6] is 43.4%; in assay [16] it was 37.5%; in assay [19] it was 21.8%. The viability at 50 µg/mL in [7] came out at 35.8%; in [15], 23.1%; in assay [20], 18.7%.

Take `Cc1ccc2ccc3c(c2n1)OC(/N=C/N)=C(C#N)C3c1ccc(Cl)cc1` (stereo not given): the IC50 in assay [1] is 32.9 µg/mL (≈ 87.8 µM); in [8], 21.7 µg/mL (≈ 57.9 µM); in [21] it was greater than 50 µg/mL. The values for the viability at 1.56 µg/mL in [2], in [9] and in assay [11] were 80.5%, 91.6% and 98.4%, respectively. Moreover, the viability at 3.125 µg/mL in [3] was found to be 76.7%; in assay [12], 96.5%; in [17], 82.2%. Also, the viability at 6.25 µg/mL in assay [4] came out at 68%; in assay [10] it was 70.7%; in assay [14], 89.3%. In addition, the viability at 12.5 µg/mL stood at 57.7% in [5], 81.5% in assay [13] and 65.2% in assay [18]. The viability at 25 µg/mL in assay [6] came to 53.8%; in assay [16], 74.2%; in assay [19], 44.2%. For the same compound, the viability at 50 µg/mL in assay [7] was 41.2%; in [15], 63.6%; in [20] it was 35.9%.

`Cc1ccc2ccc3c(c2n1)OC(/N=C/N)=C(C#N)C3c1ccc(Br)cc1` (stereo not given): the IC50 in assay [1] is greater than 50 µg/mL; in assay [8] it was 6.2 µg/mL (≈ 14.8 µM); in [21], greater than 50 µg/mL. Besides, the viability at 1.56 µg/mL was determined as 98.8% in assay [2], 86.9% in [9] and 100% in assay [11]. Also, the results for the viability at 3.125 µg/mL in [3], in assay [12] and in [17] were 89.3%, 97.3% and 65%, respectively. In addition, the results for the viability at 6.25 µg/mL in [4], in assay [10] and in assay [14] were 81.2%, 49.8% and 89.8%, respectively. Moreover, the viability at 12.5 µg/mL worked out at 65.5% in assay [5], 81.2% in [13] and 42.9% in assay [18]. Moreover, the viability at 25 µg/mL in assay [6] came to 60.7%; in assay [16] it was 69.6%; in assay [19], 34.1%. Further, the figures for the viability at 50 µg/mL in assay [7], in assay [15] and in assay [20] were 52.3%, 56.2% and 24.8%, respectively.

In the case of `Cc1ccc2ccc3c(c2n1)OC(/N=C/N(C)C)=C(C#N)C3c1ccc(Cl)cc1` (stereo not given), the IC50 in assay [1] was greater than 50 µg/mL; in assay [8] it was 28.2 µg/mL (≈ 70 µM); in assay [21], 24.4 µg/mL (≈ 60.6 µM). The viability at 1.56 µg/mL in [2] was determined as 100%; in assay [9], 82%; in assay [11], 97%. Further, the viability at 3.125 µg/mL came to 100% in [3], 87.2% in assay [12] and 78.7% in assay [17]. Besides, the viability at 6.25 µg/mL in assay [4] came out at 97.8%; in assay [10] it was 74.2%; in assay [14], 76.9%. Further, the results for the viability at 12.5 µg/mL in assay [5], in assay [13] and in assay [18] were 94.7%, 68.2% and 69.7%, respectively. Besides, the viability at 25 µg/mL in [6] was determined as 81.5%; in assay [16] it was 49.6%; in assay [19], 53.5%. Also, the viability at 50 µg/mL in [7] was 68.2%; in [15], 35%; in assay [20], 30.5%.

As for `CC[C@]1(O)C[C@@H]2CN(CCc3c([nH]c4ccccc34)[C@@](C(=O)OC)(c3cc4c(cc3OC)N(C)[C@H]3[C@@](O)(C(=O)OC)[C@H](OC(C)=O)[C@]5(CC)C=CCN6CC[C@]43[C@@H]65)C2)C1` [VINBLASTINE], the viability at 1.56 µg/mL turned out to be 72.1% in [2], 53.4% in [9] and 76.2% in assay [11]. The figures for the viability at 3.125 µg/mL in [3], in assay [12] and in [17] were 55%, 60.4% and 47.5%, respectively. The viability at 6.25 µg/mL in [4] was determined as 45.1%; in assay [10], 38.1%; in assay [14], 48.8%. Also, the viability at 12.5 µg/mL in assay [5] is 24.2%; in assay [13], 29.6%; in assay [18], 28.2%. For the same compound, the viability at 25 µg/mL in [6] was 16.1%; in [16], 15.2%; in [19] it was 21.7%. The viability at 50 µg/mL in assay [7] came to 14.4%; in assay [15], 7.82%; in assay [20], 16.3%. In assay [8], this compound gave an IC50 of 2.6 µg/mL (≈ 3.21 µM).
